Here are results for one compound from paper PMC11729425 (ACS Pharmacology & Translational Science, 2024).

Data set [1] concerns Aged C57BL/6J mice. The data set can be described thus: CK level after 90 min downhill running. It is filed as in vivo, C57BL/6JRj mice. The settings on record: 1 mg/kg in the food, week 15, trend for improvement. As to the method:
(§1) Figure 2 Chronic oral administration of ALT-007 enhances physical fitness in aged mice. (A) Schematic representation of the study time-line. Compounds were mixed in the food, ALT-007 at 1 mg/kg and DMSO at equivalent volume. At week 0: young mice were 2 months old, and the old mice were 18 months old. (B) Body weight curve over the course of the study (20 weeks). (C) Food intake curve throughout the study. (D–G) Organ mass at sacrifice (week 20), normalized to body weight. (H) Oral glucose tolerance test (oGTT) performed at week 17. (I) Best performance during hanging time normalized to BW at week 7. (J) Best performance during grip strength on the 4 limbs normalized to BW at week 8. (K) Rotarod’s best latency time at week 9. (L) VO2Max performed at week 11. (M) Uphill maximum running time performed at week 13. N = 9 per group. (N) Difference of CK level after—before 90 min downhill running performed at week 15. N = 6 in young, N = 8 in DMSO and N = 7 in ALT-007-treated groups. (O–Q) Measurement of kCAL/h at night (O) and at day (P) and movement recording in x, y, z (Q) during 24 h in CLAMS at week 19. N = 12 per group unless specified otherwise. Quantitative data are expressed as median with IQR. *P < 0.05, **P < 0.01, ***P < 0.001, ****P < 0.0001. ANOVA test was used for multiple comparison, and the Mann–Whitney U test when comparing 2 groups. All tests were 2 sided.

Details of data set [2]: method as in PMID 29669694. The settings on record: compared to Myriocin; cited from earlier work.
A short description of data set [3]: 10-day food admix tolerability in mice (body weight, food intake, plasma AST, ALT, CK). It is filed as in vivo. Conditions: 10 days. The method, then:
(A) Schematic representation of the de novo sphingolipid synthesis pathway. (B) Chemical structures of myriocin (MYR) and ALT-007. (C) Heatmap analysis comparing the effects of treatments with the indicated concentrations of MYR and ALT-007 on lipid species in C2C12 cells. N = 3 per group. Data are shown as log2 fold change. (D) Body weight curves of mice treated with ALT-007 or vehicle (4 mg/kg/d for 10 days, in the food). (E) Mean food consumption measurement throughout the treatment. (F) Plasma levels of aspartate transaminase (AST), (G) alanine transaminase (ALT) and (H) creatine kinase (CK) after 10 days of treatment with ALT-007 at 4 mg/kg/day. (I) Ceramide levels measured in the gastrocnemius muscle after 10 days of treatment. N = 8 per group. Quantitative data are expressed as median with min to max values. *P < 0.05, **P < 0.01, ***P < 0.001. ANOVA test was used for multiple comparison, and the Mann–Whitney U test when comparing 2 groups. All tests were 2 sided. Abbreviation: SPT, serine palmitoyltransferase; CK, creatine kinase; MYR, Myriocin; ns, nonsignificant.
Plasma parameters were assessed using samples diluted two times (at a 1:1 ratio of plasma to diluent) with the DimensionXpand Plus system from Siemens Healthcare Diagnostics. The biochemical tests were conducted in accordance with the manufacturer’s instructions for each specific parameter. These parameters included transaminase AST (DF41A), transaminase ALT (DF143) and creatine kinase (11097640), all provided by Siemens Healthcare.

Data set [4] has as its system Aged C57BL/6J mice. The data set is described as follows: VO2max test. Conditions: 1 mg/kg in the food, week 11. In kind it is in vivo, C57BL/6JRj mice. The method, then:
VO2max in mice was measured with a calorimetric treadmill (Columbus Instruments) with an incremental speed protocol as previously described.[33]

Data set [5] can be described thus: Chronic (20 weeks) oral administration in aged mice: body weight, food intake, organ mass, plasma citrulline. The settings on record: 1 mg/kg in the food. It is filed as in vivo, C57BL/6JRj mice. The method, then: as §1
Young (2 month-old) and aged (18 month-old) male C57BL/6JRj mice were purchased from Janvier Laboratories. Housing conditions involved maintaining two to five animals per cage under a 12 h light/dark cycle, with continuous access to food and water. Animals were fed a standard chow diet (Safe 150) with the following composition: 56.9% nitrogen-free extract, of which 41.0% was starch and 3.4% was sugars, 18.0% crude protein, 4.8% crude fat, 4.2% crude ash, 4.1% crude fiber and 12.0% moisture. Young (2 month-old) and old (18 month-old) mice were monitored for 20 weeks. Mice were administered either DMSO as a control or ALT-007. ALT-007 was dissolved in DMSO or DMSO alone were mixed in the food (1 mg/kg for ALT-007 or equivalent volume of DMSO for controls). Body weight and food intake measurements were recorded weekly until sacrifice.
Prior to sacrifice, mice were fasted for 4 h in the morning. Animals were sacrificed between 1:30 and 4 p.m. Mice were anesthetized with isoflurane, followed by a complete blood draw from the vena cava and perfusion with cold phosphate-buffered saline. Immediately thereafter, various tissues including liver, kidney, spleen, heart, brain, gastrocnemius muscle and tibialis anterior muscle were harvested, weighted and promptly flash-frozen in liquid nitrogen.
1.1. Supplementary Figure 1
(A) Citrulline levels in the plasma of mice treated with ALT-007 at 1 mg/kg or vehicle […]

Data set [6] concerns Aged C57BL/6J mice. The data set is described as follows: Hanging test. Conditions: 1 mg/kg in the food, week 7, normalized to BW. In kind it is in vivo, C57BL/6JRj mice. The method, then: Mice were allowed to acclimate to the testing room for 30 min before the experiment. Each mouse was positioned on a wire grid, gripping it with all four limbs. The grid was then inverted, causing the mouse to hang, and the duration it could maintain this position was recorded. The maximum trial length was set at 2 min and 30 s (150 s). The latency to fall was measured five times for each mouse, with 10 min intervals between trials.

[7] abbreviates: 4 mg/kg/d in the food, vs DMSO control mice.

In the case of `COc1cc(C(=O)N2CC[C@H](NC(=O)c3ccccc3OC(F)(F)F)c3c2cnn3C(C)C)cnc1OC` [ALT-007], the “creatine kinase in the blood after a downhill running test” value in data set [1] is reported as “nor did it reduce”. The permeability result in data set [2] is listed as “improved”. In addition, in data set [3] (setting [7]), the body weight result is “no differences” and the food intake result is recorded as “no differences”. Also, in data set [3] (4 mg/kg/day), the “hepatic toxicity by plasma transaminase (AST, ALT) levels” value was “neither hepatic nor muscle toxicity was identified” and the “muscle toxicity by plasma creatine kinase (CK) levels” value is listed as “neither hepatic nor muscle toxicity was identified”. The VO2max result in data set [4] was “significantly higher”. Moreover, in data set [5] (20 weeks), the body weight entry is reported as “stable body weight” and the food intake entry is “absence of changes in food intake”. Besides, the “gastrointestinal (GI) toxicity by plasma citrulline levels” value in data set [5] (20 weeks, vs untreated mice) was “no gastrointestinal (GI) toxicity”. In data set [5] (at sacrifice week 20, normalized to body weight), the “tissue weights relative to control” value is reported as “absence of changes”. Further, the maximum hanging time result in data set [6] is listed as “increased compared to aged control mice”.
